In data set [1] the target is T1, Asialoglycoprotein receptor (ASGP-R) (Homo sapiens, UniProt P07306+P07307).
T1 sequence (P07306 1-291): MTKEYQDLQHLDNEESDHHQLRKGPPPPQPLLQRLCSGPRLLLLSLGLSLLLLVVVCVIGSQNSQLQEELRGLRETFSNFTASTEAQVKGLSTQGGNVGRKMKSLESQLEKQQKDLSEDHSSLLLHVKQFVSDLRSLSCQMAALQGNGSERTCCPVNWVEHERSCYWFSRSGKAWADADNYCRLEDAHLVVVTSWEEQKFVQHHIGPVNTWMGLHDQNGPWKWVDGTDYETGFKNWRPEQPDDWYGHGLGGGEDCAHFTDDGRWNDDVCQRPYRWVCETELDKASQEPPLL
T1 sequence (P07307 1-311): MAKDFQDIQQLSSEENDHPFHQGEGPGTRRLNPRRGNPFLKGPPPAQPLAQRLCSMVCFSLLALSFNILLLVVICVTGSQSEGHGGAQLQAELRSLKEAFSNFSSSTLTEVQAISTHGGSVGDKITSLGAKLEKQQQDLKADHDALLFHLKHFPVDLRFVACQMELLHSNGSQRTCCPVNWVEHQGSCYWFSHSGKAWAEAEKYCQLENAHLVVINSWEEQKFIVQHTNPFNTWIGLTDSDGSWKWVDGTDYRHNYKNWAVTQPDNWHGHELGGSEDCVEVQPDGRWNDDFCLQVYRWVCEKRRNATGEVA
The note with it: higher affinity; cited from earlier work.

The test system of data set [2] is TMPRSS6 mRNA. The experiment in a line: Dose response of TMPRSS6 nucleic acids for inhibition of TMPRSS6 expression in human Hep3B cells. In kind it is cell-based. The settings on record: 30-0.003 nM nucleic acid (Luciferase 30 and 10 nM) + 1 μg/ml AtuFECT, two days, normalized to PTEN. The procedure:
Cells were plated at a cell density of 150,000 cells per 6 well dish. The following day cells were transfected with 1 μg/ml AtuFECT (50:50 formulation of cationic lipid Atufect01 and fusogenic lipid DPhyPE) and different amounts of TMPRSS6 nucleic acids (30; 10; 3; 1; 0.3; 0.1, 0.003 nM, respectively) as depicted by the X-axis of the graph in FIG. 2. For non targeting control samples, cells were transfected with 30 and 10 nM nucleic acid for Luciferase. Two days after the transfection cells were lysed and mRNA levels were determined by q-RT-PCR. TMPRSS6 mRNA levels were normalized to the expression levels of the house keeping gene PTEN. […] Sequences of RNAi molecules are depicted in Table 1.

Data set [3] has as its system TMPRSS6 mRNA. Description: Reduction of TMPRSS6 mRNA expression by different siRNAs in Hep3B cells (20 nM, 96-well). It counts as cell-based, human. The settings on record: 20 nM siRNA + 1 μg/ml AtuFECT, two days after transfection, TMPRSS6 mRNA normalized to ApoB, relative to untreated cells. The procedure:
8000 cells per well were plated in 96-well plates. The following day cells were transfected with 20 nM siRNA and 1 μg/ml AtuFECT. Two days after transfection cells were lysed and TMPRSS6 mRNA levels were determined by q-RT-PCR. TMPRSS6 mRNA levels were normalized to expression levels of the house keeping gene ApoB. An siRNAs against Luciferase was used as non targeting control.

Data set [4] concerns TMPRSS6 mRNA. Description: Dose-response of siRNAs against TMPRSS6 in Hep3B cells. The note with it: siRNA 100 nM-0.03 nM + 1 μg/ml AtuFECT, two days after transfection, TMPRSS6 mRNA normalized to ApoB, from dose-response curves FIG. 35; for Max inhibition: relative to 100 nM Luciferase-control siRNA. It counts as cell-based, human. The procedure: 8000 cells per well were plated in 96-well plates. The following day cells were transfected with siRNA in indicated concentrations (100 nM-0.03 nM) and 1 μg/ml AtuFECT. Two days after transfection cells were lysed and TMPRSS6 mRNA levels were determined by q-RT-PCR. TMPRSS6 mRNA levels were normalized to expression levels of the house keeping gene ApoB. Average inhibition and standard deviation of triplicate values relative to cells treated with 100 nM of a non-targeting Luciferase-control siRNA are shown in FIG. 35.

Oligonucleotides are written 5' to 3', each unit as a sugar letter and its base; * is a phosphorothioate linkage, no mark a phosphodiester; rarer units and linkages stand in square brackets, end groups in braces. Plain capitals give the bases only. m = 2'-O-methyl; f = 2'-fluoro

For orientation: IC50 means the concentration that gives 50% inhibition.

For `CC(=O)N[C@H]1C(O)O[C@H](CO)[C@H](O)[C@@H]1O` (stereo partly drawn) [N-Acetyl-D-Galactosylamine (GalNAc), 2-(Acetylamino)-2-deoxy-D-galactopyranose], in data set [1], the “Affinity of ASGP-R for GalNAc relative to D-Gal” value is reported as 50 fold.
As for “Luciferase nucleic acid: non targeting control nucleic acid for Luciferase, SEQ ID NO 31/32 (chain 1 UCGAAGUAUUCCGCGUACG; chain 2 CGUACGCGGAAUACUUCGA; listed as RNA, chemistry not given here) [reference compound]”, the “TMPRSS6 mRNA expression” value in data set [2] is “did not affect TMPRSS6 mRNA levels”.
Take “TMPRSS6-hcm9: siRNA, SEQ ID NO 17/18, alternating 2′OMe/2′F; TMP01 = strands TMPJH01A/TMPJH01B, same chemistry (chain 1 AACCAGAAGAAGCAGGUGA; chain 2 UCACCUGCUUCUUCUGGUU; chain 1: sugars from the 5' end mfmfmfmfmfmfmfmfmfm, backbone not given here; chain 2: sugars from the 5' end fmfmfmfmfmfmfmfmfmf, backbone not given here; further chemistry not fully specified)”: the “TMPRSS6 mRNA expression” value in data set [2] is listed as “highest reduction of TMPRSS6 mRNA expression”.
With “TMPRSS6-hcmr-24: siRNA against TMPRSS6, SEQ ID NO 209/210 (chain 1 mCfUmCfAmCfCmUfUmGfAmAfGmGfAmCfAmCfCmU; chain 2 fAmGfGmUfGmUfCmCfUmUfCmAfAmGfGmUfGmAfG)”, in data set [3], the “kd at 20 nM as shown in FIG. 34” value is reported as 70%. Moreover, in data set [4], the IC50 stood at 0.8 nM and the Max inhibition worked out at 73%.
For “TMPRSS-SR-5: siRNA against TMPRSS6, strands hcTMP-SR5-A/B, SEQ ID NO 141/142 (chain 1 mGfGmUfGmCfUmGfAmGfGmAfCmGfCmCfCmUfGmG; chain 2 fCmCfAmGfGmGfCmGfUmCfCmUfCmAfGmCfAmCfC)”, in that order: 85%, 8.4 nM and 100%.
For “TMPRSS-SR-16: siRNA against TMPRSS6, strands hcTMP-SR16-A/B, SEQ ID NO 158 (as printed)/160 (chain 1 CUCAGCACCCCGUACUUCC; chain 2 UCAGCACCCCGUACUUCCC; listed as RNA, chemistry not fully specified)”, in that order: 88%, 8.4 nM and 100%.
As for “TMPRSS-SR-21: siRNA against TMPRSS6, SEQ ID NO 167/168 (chain 1 mAfGmCfUmGfGmGfGmAfAmGfUmAfCmGfGmGfGmU; chain 2 fAmCfCmCfCmGfUmAfCmUfUmCfCmCfCmAfGmCfU)”, the “kd at 20 nM as shown in FIG. 34” value in data set [3] is reported as 92%. In addition, in data set [4], the IC50 is 5.8 nM and the Max inhibition was found to be 100%.
The like results for “TMPRSS-SR-27: siRNA against TMPRSS6, SEQ ID NO 177/178 (chain 1 mAfGmUfAmGfUmAfGmCfUmGfGmGfGmAfAmGfUmA; chain 2 fUmAfCmUfUmCfCmCfCmAfGmCfUmAfCmUfAmCfU)” were, in that order, 84%, 2.8 nM and 94%.
For “TMPRSS-hc-16: siRNA against TMPRSS6, SEQ ID NO 195/196 (chain 1 mUfAmUfUmCfCmAfAmAfGmGfGmCfAmGfCmUfGmA; chain 2 fUmCfAmGfCmUfGmCfCmCfUmUfUmGfGmAfAmUfA)”, in that order: 91%, 7.7 nM and 100%.
For the compound “TMPRSS-hc-17: siRNA against TMPRSS6, SEQ ID NO 197/198 (chain 1 AUCUUCUGGGCUUUGGCGG; chain 2 CCGCCAAAGCCCAGAAGAU; chain 1: sugars from the 5' end mfmfmfmfmfmfmfmfmfm, backbone not given here; chain 2: sugars from the 5' end fmfmfmfmfmfmfmfmfmf, backbone not given here)”, the “kd at 20 nM as shown in FIG. 34” value in data set [3] stood at 79%. Further, in data set [4], the IC50 was 2.4 nM and the Max inhibition is 82%.
For “TMPRSS-hc-18: siRNA against TMPRSS6, SEQ ID NO 199/200 (chain 1 UUUUCUCUUGGAGUCCUCA; chain 2 UGAGGACUCCAAGAGAAAA; chain 1: sugars from the 5' end mfmfmfmfmfmfmfmfmfm, backbone not given here; chain 2: sugars from the 5' end fmfmfmfmfmfmfmfmfmf, backbone not given here)”, in that order: 90%, 4.6 nM and 95%.
With “TMPRSS-hc-19: siRNA against TMPRSS6, SEQ ID NO 201/202 (chain 1 mGfAmAfUmAfGmAfCmGfGmAfGmCfUmGfGmAfGmU; chain 2 fAmCfUmCfCmAfGmCfUmCfCmGfUmCfUmAfUmUfC)”, the “kd at 20 nM as shown in FIG. 34” value in data set [3] was determined as 89%. In data set [4], the 50% inhibitory concentration (IC50) stood at 6.1 nM and the Max inhibition came to 100%.
“TMPRSS-hc-22: siRNA against TMPRSS6, SEQ ID NO 205/206 (chain 1 mAfGmAfUmCfCmUfGmGfGmAfGmAfAmGfUmGfGmC; chain 2 fGmCfCmAfCmUfUmCfUmCfCmCfAmGfGmAfUmCfU)”: the “kd at 20 nM as shown in FIG. 34” value in data set [3] amounted to 73%. For the same compound, in data set [4], the IC50 was 8.1 nM and the Max inhibition is 99%.
The like results for “TMPRSS-hc-23: siRNA against TMPRSS6, SEQ ID NO 207/208 (chain 1 CUGUUCUGGAUCGUCCACU; chain 2 AGUGGACGAUCCAGAACAG; chain 1: sugars from the 5' end mfmfmfmfmfmfmfmfmfm, backbone not given here; chain 2: sugars from the 5' end fmfmfmfmfmfmfmfmfmf, backbone not given here)” were, in that order, 70%, 4.6 nM and 83%.
The like results for “TMPRSS-hcm-25: siRNA against TMPRSS6, SEQ ID NO 211/212 (chain 1 AGUUUCUCUCAUCCAGGCC; chain 2 GGCCUGGAUGAGAGAAACU; chain 1: sugars from the 5' end mfmfmfmfmfmfmfmfmfm, backbone not given here; chain 2: sugars from the 5' end fmfmfmfmfmfmfmfmfmf, backbone not given here)” were, in that order, 85%, 4.6 nM and 87%.
For “TMPRSS-hcr-26: siRNA against TMPRSS6, SEQ ID NO 213/214 (chain 1 GUACCCUAGGAAAUACCAG; chain 2 CUGGUAUUUCCUAGGGUAC; chain 1: sugars from the 5' end mfmfmfmfmfmfmfmfmfm, backbone not given here; chain 2: sugars from the 5' end fmfmfmfmfmfmfmfmfmf, backbone not given here)”, in that order: 98%, 3.5 nM and 100%.

The values above are taken from patent US20250025488A1, “NUCLEIC ACIDS FOR INHIBITING EXPRESSION OF TMPRSS6 AND IRON CHELATORS” (SILENCE THERAPEUTICS GMBH, priority 2018, published 2025).
